One experiment concerns the target T1, SF3b complexes (Homo sapiens, UniProt O75533+Q7RTV0).
T1 construct: endogenous in cells
Put plainly: Scintillation proximity assay (SPA) with [3H]-labelled pladienolide probe. It counts as binding. As to conditions: wt SF3B1, read-out: SPA (wt SF3B1 cells) IC50. The method in brief:
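SF3b complexes immunoprecipitated from nuclear extracts with anti-SF3B1 antibody on anti-mouse PVT SPA beads. Beads pre-incubated 30 min with varying PB or PB-OH, then 2.5 nM [3H]-PB added for 30 min; scintillation signal read and fit by non-linear regression.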

Experiment [1] relates to Panc 05.04 cells (pancreatic cancer cells; Q699H and K700E mutations in SF3B1). Put plainly: Cell viability assay (CellTiter-Glo, 72 hr), Panc 05.04 cells. It counts as cell-based. As to conditions: Panc 05.04 cells (mutant SF3B1); for Emax: maximum achievable response in tested dose range, negative value = cellular lethality, read-out: Panc 05.04 (mt SF3B1 cells) Emax (%); for GI50: read-out: Panc 05.04 (mt SF3B1 cells), GI50. The method in brief:
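Viability was read as ATP content (CellTiter-Glo) after 72 hr compound exposure of Panc 05.04 cells at 37 °C, nine concentrations, 0.1% DMSO. Percentage growth was referenced to time-zero and vehicle wells and plotted against concentration to obtain Emax; negative Emax denotes cell killing.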

For experiment [2], the system named is WiDr-R cells (colon cancer cells; chemically-induced SF3B1 R1074H mutant). Description: Cell viability assay (CellTiter-Glo, 72 hr), resistant WiDr-R cells (counter-screen). It counts as cell-based. Particulars: WiDr-R cells (SF3B1 R1074H mutation, resistant); read-out: WiDr-R GI50. The method in brief: (§1)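 Cells at 2000/well were exposed to 9 compound concentrations (0.1% DMSO) in duplicate or triplicate for 72 hr at 37 °C. ATP was read by CellTiter-Glo against a time-zero plate and DMSO control growth. Percent growth/viability was plotted against concentration to give Emax; negative values indicate lethality.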
A general note: ATP-based viability assays read luminescence as a measure of living cells.

Experiment [3] has as its system WiDr cells (colon cancer cells; wildtype SF3B1). Description: Cell viability assay (CellTiter-Glo, 72 hr), WiDr cells. Type of experiment: cell-based. Particulars: Homo sapiens; WiDr cells (wildtype SF3B1); read-out: WiDr GI50. A digest of the protocol: as §1

Bounds are passed on as bounds.

Data on 11 compounds can be found in patent US11926619B2, “Certain pladienolide compounds and methods of use” (EISAI R&D MANAGEMENT CO., LTD., priority 2018, dated 2024).

As to `CC(=O)O[C@H]1/C=C/[C@H](C)[C@@H](/C(C)=C/C=C/[C@@H](C)COC(=O)N2CCCCC2)OC(=O)C[C@H](O)CC[C@@]1(C)O`, the IC50 on SF3b complexes turned out to be 15 nM. For the same compound, the Emax in experiment [1] was -74.6%. Also, the results for the 50% growth inhibitory concentration (GI50) in experiment [1], in experiment [2] and in experiment [3] were 82.2 nM, over 10000 nM and 49.7 nM, respectively.
In the same order, the values of `C/C(=C\C=C\[C@@H](C)c1ccccn1)[C@H]1OC(=O)C[C@H](O)CC[C@@](C)(O)[C@@H](OC(=O)N2CCN(C3CCCC3)CC2)/C=C/[C@@H]1C` are 8.76 nM, -89.5%, 27.9 nM, over 1000 nM and 19.6 nM.
In the case of `C/C(=C\C=C\[C@@H](C)COC(=O)N1CCC[C@H]1CO)[C@H]1OC(=O)C[C@H](O)CC[C@@](C)(O)[C@@H](OC(=O)N2CCN(C3CCCCCC3)CC2)/C=C/[C@@H]1C`, the IC50 on SF3b complexes was 7.03 nM. In addition, the Emax in experiment [1] was -70.4%. Besides, the GI50 was 2.39 nM in experiment [1], 40.1 nM in experiment [2] and 2.73 nM in experiment [3].
Consider `C/C(=C\C=C\[C@@H](C)COC(=O)N1CC[C@@H](O)C1)[C@H]1OC(=O)C[C@H](O)CC[C@H](C)[C@@H](OC(=O)N2CCN(C3CCCCCC3)CC2)/C=C/[C@@H]1C`, for which, at SF3b complexes, the IC50 came to 5.67 nM. For the same compound, in experiment [1], the Emax was -77.8%. Besides, the concentration for 50% growth inhibition (GI50) in experiment [1] was 10.8 nM; in experiment [2], over 1000 nM; in experiment [3], 8.27 nM.
The like results for `C/C(=C\C=C\[C@@H](C)COC(=O)N1CCCC12COC2)[C@H]1OC(=O)C[C@H](O)CC[C@@](C)(O)[C@@H](OC(=O)N2CCN(C)CC2)/C=C/[C@@H]1C` were, in that order, 9.56 nM, 90.7%, 31.5 nM, over 1000 nM and 47.2 nM.
The like results for `CC[C@H](OC(C)=O)[C@@H](C)[C@H]1O[C@@H]1C[C@@](C)(O)/C=C/C=C(\C)[C@H]1OC(=O)C[C@H](O)CC[C@@](C)(O)[C@@H](OC(=O)N2CCN(C3CCCCCC3)CC2)/C=C/[C@@H]1C` were, in that order, 5.85 nM, -78.6%, 2.41 nM, 132 nM and 2 nM.
The like results for `C/C(=C\C=C\[C@@H](C)COC(=O)N1CC[C@@H](O)C1)[C@H]1OC(=O)CCCCC[C@@H](OC(=O)N2CCN(C3CCCCCC3)CC2)/C=C/[C@@H]1C` were, in that order, 40.2 nM, -81.6%, 35.2 nM, over 1000 nM and 45.5 nM.
In the case of `C/C(=C\C=C\[C@@H](C)c1ccccn1)[C@H]1OC(=O)C[C@H](O)CC[C@@](C)(O)[C@@H](OC(=O)N2CCCN(C3CCCCCC3)CC2)/C=C/[C@@H]1C`, the IC50 at SF3b complexes was found to be 7.32 nM. For the same compound, the Emax in experiment [1] is -12.7%. The 50% growth inhibitory concentration (GI50) in experiment [1] was 104 nM; in experiment [2], over 1000 nM; in experiment [3], 74.9 nM.
As to `C/C(=C\C=C\[C@@H](C)COC(=O)N1[C@H](C)CC[C@H]1C)[C@H]1OC(=O)C[C@H](O)CC[C@@](C)(O)[C@@H](OC(=O)N2CCN(C)CC2)/C=C/[C@@H]1C`, the IC50 at SF3b complexes is 2.77 nM. Besides, the Emax in experiment [1] was -68.1%. In addition, the GI50 was 1.12 nM in experiment [1], over 1000 nM in experiment [2] and 1.03 nM in experiment [3].
In the same order, the values of `CC(=O)O[C@H]1/C=C/[C@H](C)[C@@H](/C(C)=C/C=C/[C@H](C)c2ccccn2)OC(=O)C[C@H](O)CC[C@@]1(C)O` are 235 nM, 1.96%, 546 nM, over 10000 nM and 205 nM.
In the same order, the values of `C/C(=C\C=C\[C@@H](C)COC(=O)N1CC[C@@H](O)C1)[C@H]1OC(=O)C[C@H](O)CC[C@@](C)(O)[C@@H](OC(=O)N2CCN(C3CCCCCC3)CC2)/C=C/[C@@H]1C` are 7.66 nM, -84.5%, 5.51 nM, over 1000 nM and 5.56 nM.

The term IC50 denotes the concentration that inhibits the measured activity by half. By GI50 is commonly meant the concentration at which growth is held to half of that of the control.
